Results on one molecule are retold here after patent US4060524A, “6-Acylamido-2,2-dimethyl-3-(pyrimidin-4,6-dione-2-yl)penams” (Pfizer Inc., priority 1976, dated 1977).

What all share (test): in vitro MIC, two-fold serial dilution in brain-heart infusion medium
Common to all, as to assay type: cell-based

Test [1] has as its system Streptococcus pyogenes 02C203. The protocol:
(§1) The in vitro activity of the herein-described compounds renders them useful for topical application in the form of ointments, creams and the like, or for sterilization purposes, e.g., sickroom utensils. For topical application, the dosage level is on the order of from about 10 to 200 mg./kg./day.
(§2) The in vitro (MIC) values for 6-(phenylacetamido)-2,2-dimethyl-3-(pyrimidin-4,6-dione-2-yl)penam against several organisms is presented below: […]

Test [2] relates to Pasteurella multocida 59A001. Here is the method:
as §1, §2

The subject of test [3] is Staphylococcus aureus 01A099. The protocol:
as §1, §2

Test [4] has as its system Staphylococcus aureus 01AA005. Here is the method: as §1, §2

≈ marks a conversion by molar mass, not a printed value.

Turning to `CC1(C)S[C@@H]2[C@H](NC(=O)Cc3ccccc3)C(=O)N2[C@H]1C1=NC(=O)CC(=O)N1` [6-Phenylacetamido-2,2-dimethyl-3-(pyrimidin-4,6-dione-2yl)penam], the MIC (usually the smallest concentration in the dilution series that meets the test's criterion for growth inhibition) in test [1] was determined as 3.12 µg/mL (≈ 7.79 µM); in test [2], 50 µg/mL (≈ 125 µM); in test [3] it was 50 µg/mL (≈ 125 µM); in test [4], 50 µg/mL (≈ 125 µM).
